Test results as given in PubChem BioAssay (NCI).
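A five-concentration, 48-hour dose response in 96-well plates underlies each endpoint, interpolated linearly between surrounding concentrations. At the TGI there is no net growth.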

What was measured:
Assay in all cases: NCI tumour cell line growth inhibition, 48 h
NCI/ADR-RES ovarian = system: NCI/ADR-RES ovarian
EKVX NSCLC = system: EKVX NSCLC
SNB-19 CNS = system: SNB-19 CNS
HCC-2998 colon = system: HCC-2998 colon
CCRF-CEM leukemia = system: CCRF-CEM leukemia
LOX IMVI melanoma = system: LOX IMVI melanoma
OVCAR-8 ovarian = system: OVCAR-8 ovarian
SF-268 CNS = system: SF-268 CNS
HCT-15 colon = system: HCT-15 colon
HL-60(TB) leukemia = system: HL-60(TB) leukemia
SF-539 CNS = system: SF-539 CNS
SK-MEL-5 melanoma = system: SK-MEL-5 melanoma
SF-295 CNS = system: SF-295 CNS
K-562 leukemia = system: K-562 leukemia
NCI-H460 lung = system: NCI-H460 lung
OVCAR-5 ovarian = system: OVCAR-5 ovarian
SK-MEL-2 melanoma = system: SK-MEL-2 melanoma
786-0 renal = system: 786-0 renal
NCI-H522 lung = system: NCI-H522 lung

SMILES | TGI (NCI/ADR-RES ovarian) | TGI (EKVX NSCLC) | TGI (SNB-19 CNS) | TGI (HCC-2998 colon) | TGI (CCRF-CEM leukemia) | TGI (LOX IMVI melanoma) | TGI (OVCAR-8 ovarian) | TGI (SF-268 CNS) | TGI (HCT-15 colon) | TGI (HL-60(TB) leukemia) | TGI (SF-539 CNS) | TGI (SK-MEL-5 melanoma) | TGI (SF-295 CNS) | TGI (K-562 leukemia) | TGI (NCI-H460 lung) | TGI (OVCAR-5 ovarian) | TGI (SK-MEL-2 melanoma) | TGI (786-0 renal) | TGI (NCI-H522 lung)
CC(C)N1CSC(=S)N(Cc2ccccc2)C1 | > 10 µM | > 10 µM | > 10 µM | > 10 µM | > 10 µM | > 10 µM | > 10 µM | > 10 µM | > 10 µM | 0.652 µM | 3.35 µM | > 10 µM | > 10 µM | > 10 µM | > 10 µM | – | – | – | –
COC1OC(COC(=O)NCCCCC(=O)C(F)(F)F)C(O)C(O)C1O (configuration not stated) | > 100 µM | – | > 100 µM | > 100 µM | > 100 µM | > 100 µM | – | > 100 µM | > 100 µM | > 100 µM | > 100 µM | > 100 µM | > 100 µM | > 100 µM | > 100 µM | > 100 µM | > 100 µM | > 100 µM | –
Cn1c(COC(=O)NC2CCCCC2)c(COC(=O)NC2CCCCC2)c2ccc3cc(Cl)c(Cl)cc3c21 | > 100 µM | > 100 µM | 26.1 µM | 26.6 µM | 11.3 µM | 30.6 µM | > 100 µM | 24.5 µM | 24.7 µM | 26.4 µM | 42.1 µM | 26.4 µM | > 100 µM | 15.7 µM | 17.3 µM | 34.5 µM | 28.5 µM | 30.3 µM | –
O=C1CCC[C@H]2O[C@@H](COCc3ccccc3)C[C@@H]12 | > 100 µM | – | > 100 µM | – | > 100 µM | – | > 100 µM | > 100 µM | > 100 µM | > 100 µM | > 100 µM | > 100 µM | > 100 µM | > 100 µM | > 100 µM | > 100 µM | > 100 µM | > 100 µM | –
CCOC(CCCN1CCC2(CC1)C(=O)N(C)CN2c1ccccc1)(OCC)c1ccc(F)cc1 | 33.5 µM | 9.81 µM | 22.6 µM | 21.3 µM | 18.7 µM | 31 µM | 33.6 µM | 29.7 µM | 22.7 µM | 30.6 µM | 13.7 µM | 14.9 µM | 25.3 µM | 33 µM | – | 21.6 µM | – | 27.7 µM | 34.2 µM
Cc1c2cnccc2nc2[nH]c3ccncc3c12 | – | 96.9 µM | > 100 µM | – | 32.6 µM | 11.9 µM | > 100 µM | 7.62 µM | 28.8 µM | 61.9 µM | > 100 µM | 20.6 µM | 52.5 µM | > 100 µM | 6.06 µM | 40.5 µM | 27.6 µM | 63.1 µM | 18.5 µM
O=C(CC(C(=O)c1ccsc1)c1ccccc1)c1cccs1 (configuration not stated) | 67.9 µM | > 100 µM | – | > 100 µM | > 100 µM | – | > 100 µM | > 100 µM | > 100 µM | > 100 µM | > 100 µM | > 100 µM | > 100 µM | > 100 µM | > 100 µM | > 100 µM | – | > 100 µM | > 100 µM
CCOC(=O)C(NC(=O)NC(C(=O)OCC)C(=O)OCC)C(=O)OCC | > 100 µM | > 100 µM | > 100 µM | > 100 µM | – | – | > 100 µM | > 100 µM | > 100 µM | – | > 100 µM | > 100 µM | > 100 µM | > 100 µM | > 100 µM | > 100 µM | > 100 µM | > 100 µM | > 100 µM
COc1cc2c(c(OC)c1OC)C(=O)[C@H]1OC(=O)N[C@@H]21 | > 100 µM | – | > 100 µM | > 100 µM | > 100 µM | > 100 µM | > 100 µM | > 100 µM | > 100 µM | > 100 µM | > 100 µM | – | > 100 µM | > 100 µM | – | > 100 µM | > 100 µM | > 100 µM | –
CCN1C(=O)C(=Cc2ccc(-c3ccccc3)cc2)C(=O)N(CC)C1=S | > 100 µM | > 100 µM | > 100 µM | > 100 µM | > 100 µM | > 100 µM | > 100 µM | > 100 µM | > 100 µM | > 100 µM | > 100 µM | > 100 µM | > 100 µM | > 100 µM | > 100 µM | > 100 µM | > 100 µM | > 100 µM | –
O=C(CC(C(=O)c1cccs1)c1ccsc1)c1ccsc1 (configuration not stated) | 63.6 µM | > 100 µM | > 100 µM | > 100 µM | > 100 µM | > 100 µM | > 100 µM | > 100 µM | > 100 µM | > 100 µM | 94.8 µM | 64 µM | 93.3 µM | > 100 µM | > 100 µM | > 100 µM | – | > 100 µM | 50 µM
CCCCCCCCCCCC1N=C(N)NC(CCCO)=C1C(=O)OC (configuration not stated) | 49.5 µM | 40.6 µM | – | 5.02 µM | 3.79 µM | – | 6.25 µM | 5.81 µM | 29.7 µM | 2.81 µM | 33.2 µM | 6.33 µM | 8.59 µM | 4.49 µM | – | 16.6 µM | – | – | 3.72 µM
CN1CN(c2ccccc2)C2(CCN(CCCC(=O)c3cccs3)CC2)C1=O | > 100 µM | 80.9 µM | > 100 µM | 38.9 µM | > 100 µM | > 100 µM | > 100 µM | > 100 µM | > 100 µM | > 100 µM | 64 µM | 65 µM | 85.6 µM | > 100 µM | – | 87.4 µM | – | > 100 µM | > 100 µM
CN(C)C(=C1c2cc([N+](=O)[O-])ccc2-c2ccc([N+](=O)[O-])cc21)N(C)C | > 100 µM | > 100 µM | > 100 µM | > 100 µM | > 100 µM | – | > 100 µM | > 100 µM | > 100 µM | – | – | > 100 µM | > 100 µM | > 100 µM | – | > 100 µM | > 100 µM | > 100 µM | > 100 µM
